What follows are compounds tested against Factor IXa (Homo sapiens (Human), UniProt P00740) (assay: Determination of inhibitory activity against Factor IXa (cleavage of fluorescent peptide CH3SO2-D-CHG-Gly-Arg-AFC)). Settings: read-out: FIXa IC50.
Format: biochemical
Description: Determination of Inhibitory Activity Against Factor IXa
Formation of a clot to stem bleeding at a site of blood vessel injury involves the coordinated activity of a group of plasma proteins that initiate and propagate fibrin formation and subsequently protect fibrin from premature degradation. Factor IX is a key component of the plasma system that forms a fibrin clot at a site of vascular injury. The activity of Factor IXa is measured by monitoring the cleavage of the fluorescent peptide, CH3SO2-D-CHG-Gly-Arg-AFC.AcOH (“CHG” is cyclohexyl-glycine and “AFC” is trifluoro aminomethyl coumarin). Factor IXa cleaves the amide bond between Arg and AFC, thereby releasing the AFC fluorophore. The free AFC can be detected with a fluorescence detector at an excitation wavelength of 405 nm and emission wavelength of 510 nm.

Sequence of Factor IXa (P00740 227-461): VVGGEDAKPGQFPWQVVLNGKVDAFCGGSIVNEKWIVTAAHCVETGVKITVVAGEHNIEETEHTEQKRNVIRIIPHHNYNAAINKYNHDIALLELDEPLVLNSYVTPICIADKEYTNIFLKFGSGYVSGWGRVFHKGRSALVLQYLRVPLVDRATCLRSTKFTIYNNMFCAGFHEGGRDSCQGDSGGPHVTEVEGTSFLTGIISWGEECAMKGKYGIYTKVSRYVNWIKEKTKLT
Sequence of Factor IXa (P00740 47-191 partner): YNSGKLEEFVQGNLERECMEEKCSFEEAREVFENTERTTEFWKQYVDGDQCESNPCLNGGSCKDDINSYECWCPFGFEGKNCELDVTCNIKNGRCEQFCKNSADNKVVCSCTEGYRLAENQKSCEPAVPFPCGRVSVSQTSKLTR

Structure (SMILES) | IC50 [nM]
Cc1ccc2nc([C@@H](CNC(=O)c3ccc(-n4cnnc4)cc3Cl)c3ccccc3)[nH]c(=O)c2c1 [Example 91, (R)-2-Chloro-N-(2-(6-methyl-4-oxo-3,4-dihydroquinazolin-2-yl)-2-phenylethyl)-4-(4H-1,2,4-triazol-4-yl)benzamide] | 189
Cc1ncn(-c2cc(Cl)c(C(=O)NC[C@@H](c3cccc(F)c3)c3nc4c(F)ccc(C)c4c(=O)[nH]3)c(Cl)c2)n1 [Example 92, (R)-2,6-dichloro-N-(2-(8-fluoro-5-methyl-4-oxo-3,4-dihydroquinazolin-2-yl)-2-(3-fluorophenyl)ethyl)-4-(3-methyl-1H-1,2,4-triazol-1-yl)benzamide] | 1
Cc1ncn(-c2cc(Cl)c(C(=O)NC[C@@H](c3ccc(F)cc3)c3nc4c(F)ccc(C)c4c(=O)[nH]3)c(Cl)c2)n1 [Example 93, (R)-2,6-dichloro-N-(2-(8-fluoro-5-methyl-4-oxo-3,4-dihydroquinazolin-2-yl)-2-(4-fluorophenyl)ethyl)-4-(3-methyl-1H-1,2,4-triazol-1-yl)benzamide] | 4.6
Cc1ncn(-c2cc(Cl)c(C(=O)NC[C@@H](c3cccc(F)c3)c3nc4c(F)ccc(Cl)c4c(=O)[nH]3)c(Cl)c2)n1 [Example 94, (R)-2,6-dichloro-N-(2-(5-chloro-8-fluoro-4-oxo-3,4-dihydroquinazolin-2-yl)-2-(3-fluorophenyl)ethyl)-4-(3-methyl-1H-1,2,4-triazol-1-yl)benzamide] | 3.5

Same assay, conditions: read-out: hFIXa IC50

Structure (SMILES) | IC50 [nM]
O=C(NCC(c1ccccc1)c1nc2cc(Cl)ccc2c(=O)[nH]1)c1ccc(-n2cnnc2)cc1Cl (stereo not drawn) [Example 95] | 803
O=C(NC[C@@H](c1ccccc1)c1nc2ccc(Cl)cc2c(=O)[nH]1)c1ccc(-n2cnnc2)cc1Cl [Example 96] | 188
O=C(NC[C@@H](c1ccccc1)c1nc2cccc(Cl)c2c(=O)[nH]1)c1ccc(-n2cnnc2)cc1Cl [Example 97] | 51.5
O=C(NC[C@@H](c1ccccc1)c1nc2c(Cl)cccc2c(=O)[nH]1)c1ccc(-n2cnnc2)cc1Cl [Example 98] | 178
O=C(NC[C@@H](c1ccccc1)c1nc2c(Cl)ccc(Cl)c2c(=O)[nH]1)c1ccc(-n2cnnc2)cc1Cl [Example 99] | 43.1
Cc1cccc2nc([C@@H](CNC(=O)c3ccc(-n4cnnc4)cc3Cl)c3ccccc3)[nH]c(=O)c12 [Example 100] | 16.8
Cc1ccc(F)c2nc(C(CNC(=O)c3ccc(-n4cnnc4)cc3Cl)c3ccccc3)[nH]c(=O)c12 (stereo not drawn) [Example 101] | 6.68
Cc1ncn(-c2ccc(C(=O)NC[C@@H](c3ccccc3)c3nc4c(F)ccc(C)c4c(=O)[nH]3)c(Cl)c2)n1 [Example 102] | 10.7
Cc1ncn(-c2ccc(C(=O)NC[C@@H](c3cccc(F)c3)c3nc4c(F)ccc(C)c4c(=O)[nH]3)c(Cl)c2)n1 [Example 103] | 6.35
O=C(O)c1ccc2ncn(-c3ccc(C(=O)NCC(c4cccc(F)c4)c4nc5c(F)ccc(Cl)c5c(=O)[nH]4)c(Cl)c3)c2c1 (stereo not drawn) [Example 104] | 1.97
O=C(O)c1ccc2c(c1)ncn2-c1ccc(C(=O)NCC(c2cccc(F)c2)c2nc3c(F)ccc(Cl)c3c(=O)[nH]2)c(Cl)c1 (stereo not drawn) [Example 105] | 3.32
Cc1ccc(F)c2nc([C@@H](CNC(=O)c3ccc(-c4ccnnc4)cc3Cl)c3cccc(F)c3)[nH]c(=O)c12 [Example 106] | 8.5
Cc1ccc(F)c2nc([C@@H](CNC(=O)c3ccc(-n4cnc(CCO)c4)cc3Cl)c3cccc(F)c3)[nH]c(=O)c12 [Example 107] | 7.3
Cc1ccc(F)c2nc([C@@H](CNC(=O)c3ccc(-c4ccc(=O)n(C)c4)cc3Cl)c3cccc(F)c3)[nH]c(=O)c12 [Example 108] | 9.2
Cc1ccc(F)c2nc([C@@H](CNC(=O)c3ccc(-n4cnn(C)c4=O)cc3Cl)c3cccc(F)c3)[nH]c(=O)c12 [Example 109] | 1.8
Cc1ncn(-c2cc(Cl)c(C(=O)NC[C@@H](c3cccnc3)c3nc4c(F)ccc(C)c4c(=O)n3C)c(Cl)c2)n1 [Example 110] | 8.9
Cc1ccc(F)c2nc([C@@H](CNC(=O)c3ccc(-n4cnnc4C(F)F)cc3Cl)c3cccc(F)c3)[nH]c(=O)c12 [Example 111] | 9.6
Cc1ncn(-c2cc(Cl)c(C(=O)NC[C@@H](c3cccc(F)c3)c3ccc4c(C)ccc(F)c4n3)c(Cl)c2)n1 [Example 113] | 10.4
COc1cc([C@@H](CNC(=O)c2c(Cl)cc(-n3cnc(C)n3)cc2Cl)c2cccc(F)c2)nc2c(F)ccc(C)c12 [Example 114] | 52.2
Cc1ncn(-c2cc(Cl)c(C(=O)NCC(c3cccc(F)c3)c3nc4cc(C)c(C)cc4[nH]c3=O)c(Cl)c2)n1 (stereo not drawn) [Example 116] | 51.1
